pEC50: −log10 of the molar value. Like-named read-outs stand apart in the source and are kept apart here.

19 compounds from patent US9856247B2, “4-methyl-dihydropyrimidines for the treatment and prophylaxis of Hepatitis B virus infection” (Hoffmann-La Roche Inc., priority 2012, dated 2018) can be followed below.

Data set [1] is described as follows: in vitro. Particulars: human. As for the experimental part: The transfected cells were selected with G418 (also known as Genticin, purchased from Invitrogen). […] These cells were maintained in Dulbecco's modified Eagle's medium (DMEM)-F12 medium (Invitrogen) supplemented with 10% fetal bovine serum, 100 U/ml penicillin, and 100 μg/ml streptomycin, 0.5 mg/ml of G418 and 1 μg/ml tetracycline.
To determine if the anti-HBV effect of compound is due to cytotoxicity, HepDE 19 cells (5×10^3 cells/well) were seeded into 96-well plates and compounds were treated as described above. […] Four hours after incubation at 37° C., the absorbance at wavelengths of 450 nm and 630 nm (OD450 and OD630) was recorded by a plate reader.

Data set [2] deals with HBV DNA. Kind of data set: Anti-HBV activity in HepDE19 cells (HBV DNA dot-blot). The data set is classed as cell-based, Hepatitis B virus (HBV). The source says: Cells and culture conditions: HepDE19 (Haitao Guo et al, Journal of Virology, 81, November 2007, 12472-12484; Richeng Mao et al, Journal of Virology, 85, January 2011, 1048-1057) cells were derived from HepG2 (ATCC, American Type Culture Collection) cells through transfection with pTet-off plasmid (Clontech) that expresses the Tet-responsive transcriptional activator and pTREHBVDE plasmid in which HBV pgRNA expression is controlled by a CMV early promoter with a tetracycline-responsive element. The transfected cells were selected with G418 (also known as Genticin, purchased from Invitrogen). […] These cells were maintained in Dulbecco's modified Eagle's medium (DMEM)-F12 medium (Invitrogen) supplemented with 10% fetal bovine serum, 100 U/ml penicillin, and 100 μg/ml streptomycin, 0.5 mg/ml of G418 and 1 μg/ml tetracycline.
Anti-HBV activity and cytotoxicity: HepDE19 cells were seeded into 96-well plates (3×10^4 cells/well) with tetracycline-free medium and incubated overnight at 37° C. The test or control compounds were serially half-log diluted with medium and added into the plates (the final concentration of DMSO kept at 0.5% in each well). Five days after compound treatment, cells were washed with PBS and lysed with 50 mM Tris-1 mM EDTA-0.2% CA-630 (pH 8.0) at 37° C. for 20 min. After centrifugation to remove nuclei and other debris, the supernatant was transferred into a new plate and incubated with 2M NaOH/20×SSC (3M NaCl, 0.3M Sodium citrate, pH7.0) at rt for 30 min. Then the samples were transferred to nylon membrane and neutralized with 1M Tris (pH7.4)/2M NaCl. The presence of HBV DNA was detected by dot-blot with DIG-labeled HBV specific DNA probe and quantified by dot density. The compound concentrations that inhibited HBV DNA by 50% (EC50) were determined (See Table 1).

[3] abbreviates: Hepatitis B virus, 120 h, HepDE19 cells, five days after compound treatment, concentration that inhibited HBV DNA by 50%, read-out: HepDe19 EC50.
Where [4] appears, read: Hepatitis B virus, HepDE19, 120 h, read-out: HepDe19 EC50.

Compound `COC(=O)C1=C(CN2CC(F)(F)C[C@H]2C(=O)O)NC(c2sccc2F)=N[C@]1(C)c1ccc(F)cc1` [Example 42, (R)-6-((S)-2-carboxy-4,4-difluoro-pyrrolidin-1-ylmethyl)-4-(4-fluoro-phenyl)-2-(3-fluoro-thiophen-2-yl)-4-methyl-1,4-dihydro-pyrimidine-5-carboxylic acid methyl ester] registered a CC50 at 5 days in data set [1] of at least 100000 nM. Also, the pEC50 in data set [2] (setting [3]) is 5.17.

Regarding `COC(=O)C1=C(CN2CC(F)(F)C[C@H]2C(=O)O)NC(c2nc(C)cs2)=N[C@@]1(C)c1ccc(F)cc1` [Example 32, (S)-6-((S)-2-carboxy-4,4-difluoro-pyrrolidin-1-ylmethyl)-4-(4-fluoro-phenyl)-4-methyl-2-(4-methyl-thiazol-2-yl)-1,4-dihydro-pyrimidine-5-carboxylic acid methyl ester], the CC50 at 5 days in data set [1] worked out at 75000 nM. Also, in data set [2] (setting [3]), the pEC50 is 6.89.

`COC(=O)C1=C(CN2CC(F)(F)CC2CCCO)NC(c2nccs2)=N[C@@]1(C)c1ccc(F)cc1` (stereo partly drawn) [Example 56, (S)-6-[4,4-difluoro-2-(3-hydroxy-propyl)-pyrrolidin-1-ylmethyl]-4-(4-fluoro-phenyl)-4-methyl-2-thiazol-2-yl-1,4-dihydro-pyrimidine-5-carboxylic acid methyl ester] registered a CC50 at 5 days in data set [1] of 90000 nM. Further, the pEC50 in data set [2] (setting [3]) is 6.18.

The compound `COC(=O)C1=C(CN2CC(F)(F)C[C@@]2(C)C(=O)O)NC(c2nccs2)=N[C@@]1(C)c1ccc(F)cc1` [Example 20, (S)-6-((S)-2-Carboxy-4,4-difluoro-2-methyl-pyrrolidin-1-ylmethyl)-4-(4-fluoro-phenyl)-4-methyl-2-thiazol-2-yl-1,4-dihydro-pyrimidine-5-carboxylic acid methyl ester] displayed a CC50 at 5 days in data set [1] above 100000 nM. In addition, the pEC50 in data set [2] (setting [3]) was 5.55.

As for `COC(=O)C1=C(CN2CC(F)(F)C[C@H]2C(=O)O)NC(c2sccc2F)=N[C@@]1(C)c1ccc(F)cc1` [Example 41, (S)-6-((S)-2-carboxy-4,4-difluoro-pyrrolidin-1-ylmethyl)-4-(4-fluoro-phenyl)-2-(3-fluoro-thiophen-2-yl)-4-methyl-1,4-dihydro-pyrimidine-5-carboxylic acid methyl ester], the CC50 at 5 days in data set [1] is at least 100000 nM. Moreover, in data set [2] (setting [3]), the pEC50 is 6.55.

In data set [1], `COC(=O)C1=C(CN2CCC(F)(F)CC2C(=O)O)NC(c2nccs2)=N[C@@]1(C)c1ccc(F)cc1` (stereo partly drawn) [Example 26, (S)-6-(2-carboxy-4,4-difluoro-piperidin-1-ylmethyl) 4-(4-fluoro-phenyl)-4-methyl-2-thiazol-2-yl-1,4-dihydro-pyrimidine-5-carboxylic acid methyl ester] gave a CC50 at 5 days of at least 100000 nM. The pEC50 in data set [2] (setting [3]) was 5.71.

As to `COC(=O)C1=C(CN2CCOC[C@@H]2C(=O)O)NC(c2ccc(F)cn2)=NC1(C)c1ccc(F)cc1` (stereo partly drawn) [Example 9, 4-[6-(4-Fluoro-phenyl)-2-(5-fluoro-pyridin-2-yl)-5-methoxycarbonyl-6-methyl-3,6-dihydro-pyrimidin-4-ylmethyl]-morpholine-(R)-3-carboxylic acid], the CC50 at 5 days in data set [1] was above 100000 nM. The pEC50 in data set [2] (setting [3]) is 5.38.

`COC(=O)C1=C(CN2CC(F)(F)C[C@H]2C(=O)O)NC(c2ccc(F)s2)=N[C@@]1(C)c1ccc(F)cc1` [Example 38, (S)-6-((S)-2-carboxy-4,4-difluoro-pyrrolidin-1-ylmethyl)-4-(4-fluoro-phenyl)-2-(5-fluoro-thiophen-2-yl)-4-methyl-1,4-dihydro-pyrimidine-5-carboxylic acid methyl ester]: the pEC50 in data set [2] (setting [3]) is 5.69.

As to `COC(=O)C1=C(CN2CC(F)(F)C[C@H]2C(=O)OC)NC(c2nccs2)=N[C@@]1(C)c1ccc(F)cc1` [Example 45, (S)-6-((S)-4,4-difluoro-2-methoxycarbonyl-pyrrolidin-1-ylmethyl)-4-(4-fluoro-phenyl)-4-methyl-2-thiazol-2-yl-1,4-dihydro-pyrimidine-5-carboxylic acid methyl ester], the CC50 at 5 days in data set [1] is at least 100000 nM.

With `COC(=O)C1=C(CN2CC(F)(F)C[C@H]2c2nnc(C)o2)NC(c2nccs2)=N[C@@]1(C)c1ccc(F)cc1` [Example 57, (S)-6-[(S)-4,4-difluoro-2-(5-methyl-[1,3,4]oxadiazol-2-yl)-pyrrolidin-1-ylmethyl]-4-(4-fluoro-phenyl)-4-methyl-2-thiazol-2-yl-1,4-dihydro-pyrimidine-5-carboxylic acid methyl ester], the CC50 at 5 days in data set [1] was at least 100000 nM. Further, the pEC50 in data set [2] (setting [3]) is 5.81.

`COC(=O)C1=C(CN2CCOC[C@H]2C(=O)OC)NC(c2nccs2)=NC1(C)c1ccc(F)c(F)c1` (stereo in doubt) [Example 15, 4-[(S)-6-(3,4-Difluoro-phenyl)-5-methoxycarbonyl-6-methyl-2-thiazol-2-yl-3,6-dihydro-pyrimidin-4-ylmethyl]-morpholine-3-carboxylic acid methyl ester]: the CC50 at 5 days in data set [1] was above 100000 nM. Besides, the pEC50 in data set [2] (setting [3]) is 6.25.

In the case of `COC(=O)C1=C(CN2CC(F)(F)C[C@H]2C(=O)O)NC(c2ccc(F)cn2)=N[C@@]1(C)c1ccc(F)cc1` [Example 18, (S)-6-((S)-2-Carboxy-4,4-difluoro-pyrrolidin-1-ylmethyl)-4-(4-fluoro-phenyl)-2-(5-fluoro-pyridin-2-yl)-4-methyl-1,4-dihydro-pyrimidine-5-carboxylic acid methyl ester], the CC50 at 5 days in data set [1] is 25000 nM. Moreover, the pEC50 in data set [2] (setting [3]) was 6.24.

The compound `COC(=O)C1=C(CN2CC(F)(F)C[C@H]2C(=O)O)NC(c2ncc(Cl)s2)=N[C@@]1(C)c1ccc(F)cc1` [Example 33, (S)-6-((S)-2-carboxy-4,4-difluoro-pyrrolidin-1-ylmethyl)-2-(5-chloro-thiazol-2-yl)-4-(4-fluoro-phenyl)-4-methyl-1,4-dihydro-pyrimidine-5-carboxylic acid methyl ester] returned a CC50 at 5 days in data set [1] of 80000 nM. The pEC50 in data set [2] (setting [3]) is 5.68.

In turn, `COC(=O)C1=C(CN2CC(F)(F)CC2C(N)=O)NC(c2nccs2)=N[C@@]1(C)c1ccc(F)cc1` (stereo partly drawn) [Example 47, (S)-6-(2-carbamoyl-4,4-difluoro-pyrrolidin-1-ylmethyl)-4-(4-fluoro-phenyl)-4-methyl-2-thiazol-2-yl-1,4-dihydro-pyrimidine-5-carboxylic acid methyl ester] showed a CC50 at 5 days in data set [1] of at least 100000 nM. The pEC50 in data set [2] (setting [3]) is 7.32.

Regarding `COC(=O)C1=C(CN2CC(F)(F)C[C@H]2C(=O)O)NC(c2nccs2)=N[C@@]1(C)c1ccc(F)cc1` [Example 13, (S)-6-((S)-2-Carboxy-4,4-difluoro-pyrrolidin-1-ylmethyl)-4-(4-fluoro-phenyl)-4-methyl-2-thiazol-2-yl-1,4-dihydro-pyrimidine-5-carboxylic acid methyl ester], in data set [2] (setting [4]), the pEC50 is 6.82.

With `COC(=O)C1=C(CN2CCOC[C@H]2C(=O)O)NC(c2nccs2)=NC1(C)c1ccc(F)c(F)c1` (some centres unmarked) [Example 16, 4-[6-(3,4-Difluoro-phenyl)-5-methoxycarbonyl-6-methyl-2-thiazol-2-yl-3,6-dihydro-pyrimidin-4-ylmethyl]-morpholine-3-carboxylic acid], the CC50 at 5 days in data set [1] is above 100000 nM. In addition, the pEC50 in data set [2] (setting [3]) is 6.60.

Consider `COC(=O)C1=C(CN2CC(F)(F)C[C@H]2C(=O)O)NC(c2nccs2)=NC1(C)c1ccc(F)cc1` (stereo partly drawn) [Example 11, 6-(2-(S)-Carboxy-4,4-difluoro-pyrrolidin-1-ylmethyl)-4-(4-fluoro-phenyl)-4-methyl-2-thiazol-2-yl-1,4-dihydro-pyrimidine-5-carboxylic acid methyl ester], for which the pEC50 in data set [2] (setting [4]) was 6.34.

Regarding `COC(=O)C1=C(CN2CC(F)(F)C[C@@H]2C(=O)O)NC(c2nccs2)=NC1(C)c1ccc(F)cc1` (stereo partly drawn) [Example 12, 6-(2-(R)-Carboxy-4,4-difluoro-pyrrolidin-1-ylmethyl)-4-(4-fluoro-phenyl)-4-methyl-2-thiazol-2-yl-1,4-dihydro-pyrimidine-5-carboxylic acid methyl ester], the pEC50 in data set [2] (setting [4]) is 5.18.

On to `COC(=O)c1c(C)nc(-c2ncc(F)cc2F)nc1-c1ccc(F)cc1Cl` [XLVI], for which, in data set [2] (read-out: EC50 value, HBV DNA reduction in HepDE19 cell based assays), the negative logarithm of the EC50 (pEC50) was below 4.00.

The pEC50 is the EC50 on a negative log10 scale, so that one unit is a factor of ten.
